In US12383619B2, “Use of glutamate modulating agents with immunotherapies to treat cancer” (Biohaven Therapeutics Ltd., priority 2016, dated 2025):
Like-named read-outs stand apart in the source and are kept apart here.

Columns and labels:
GL261 cells = experiment: Orthotopic GL261 glioma model, survival of mice; format: in vivo, C57BL/6J mice
Description: In this Example, the effects of the combination of a glutamate modulator, BHV-4157, in combination with an immunotherapeutic agent, anti-PD-1, were compared to either alone in a glioma model substantially as decribed in Zeng, J., et al., Int J Radiat Oncol Biol Phys., 2013 Jun. 1; 86(2):343-349, portions of which are reproduced below.
GL261-Luc cells are grown in Dulbecco's Modified Eagle Medium (DMEM)+10% fetal bovineserum+1% penicillinstreptomycin at 37° C. in a humidified incubator maintained at 5% CO2 and 5% O2 (Gibco).
Female C57BL/6J mice (Harlan), 4 to 6 weeks old or 6 to 8 weeks old, are used for orthotopic glioma experiments as described in Sonabend A M, Velicu S, Ulasov IV, et al. A safety and efficacy study of local delivery of interleukin 12 transgene by PPC polymer in a model of experimental glioma. Anticancer Drugs. 2008;19:133-142. To establish syngeneic gliomas, 130,000 GL261-Luc cells are stereotactically injected in a 1 μl volume into the left striatum over 1 minute into the following coordinates: 1 mm anterior, 1 mm lateral from bregma, and 3 mm deep from the cortical surface. Tumor burden is monitored by luciferase imaging on days 7, 21 and 35 after implantation, and the mice are randomly allocated into treatment arms based on tumor radiance, so that the average tumor radiance in each group is roughly equivalent. The animals are euthanized when they show predetermined signs of neurologic deficits (failure to ambulate, weight loss >20% body mass, lethargy, hunched posture). […] Each arm has 6 to 10 mice in survival experiments. All experiments are repeated at least in triplicate.
Hamster antimurine PD-1 monoclonal antibody producing hybridoma G4 are used to produce antibodies as described in Hirano F, Kaneko K, Tamura H, et al. Blockade of B7-H1 and PD-1 by monoclonal antibodies potentiates cancer therapeutic immunity. Cancer Res. 2005;65:1089-1096.
Female C57BL/6J mice, 4 to 6 weeks old, were implanted intrancranially in the left striatum with 130,000 GL261 cells each. The mice were housed and maintained according to the institutional Animal Care and Use Committee protocol in the Johns Hopkins University Animal Facility. The mice were imaged by bioluminescent IVIS® imaging (Perkin Elmer) at day 7, 21, and 35 to assess tumor burden and randomly assigned to groups, 10 mice per arm, as follows: • 1. Control • 2. anti-PD-1 • 3. Trigriluzole 15 mg/kg • 4. Trigriluzole 30 mg/kg • 5. Trigriluzole 45 mg/kg • 6. anti-PD-1+Trigriluzole 15 mg/kg • 7. anti-PD-1+Trigriluzole 30 mg/kg • 8. anti-PD-1+Trigriluzole 45 mg/kg
Day 0 represents the date of intracranial implantation. Control arm 1 received no treatment. Control arm 2 received αPD-1 alone at a dose of 200 μg/animal via intraperitoneal injection on days 10, 12, 14. Control arms 3, 4 and 5 received BHV-4157 alone at doses of 15, 30 and 45 mg/kg (respectively) via intraperitoneal injection daily beginning on day 10. Control arms 6, 7 and 8 received BHV-4157 at doses of 15, 30 and 45 mg/kg (respectively) via intraperitoneal injection daily beginning on day 10 and αPD-1 at a dose of 200 μg/animal via intraperitoneal injection on days 10, 12, 14.
Animals were euthanized according to humane endpoints including central nervous system disturbances, hunched posture, lethargy, weight loss, and inability to ambulate.

advanced melanoma = details: 3 mg/kg every 3 weeks, cited from earlier work
[1] = system: advanced (unresectable or metastatic) melanoma; details: cited from earlier work; for median OS: 3 mg/kg monotherapy group
[2] = system: advanced (unresectable or metastatic) melanoma; details: cited from earlier work
PD-1 = target: T1, PD-1 (Homo sapiens, UniProt Q15116); details: 15 subjects, 0.3 mg/kg to 10 mg/kg, across all doses; cited from earlier work
T1 construct: indicate that PD-1 occupancy appears to be dose-independent in this dose range; host or cells: endogenous receptor in dosed subjects

[3] = patients who required re-treatment, ipilimumab monotherapy group
[4] = nivolumab 3 mg/kg every 2 weeks vs dacarbazine

T1 sequence (Q15116 25-288): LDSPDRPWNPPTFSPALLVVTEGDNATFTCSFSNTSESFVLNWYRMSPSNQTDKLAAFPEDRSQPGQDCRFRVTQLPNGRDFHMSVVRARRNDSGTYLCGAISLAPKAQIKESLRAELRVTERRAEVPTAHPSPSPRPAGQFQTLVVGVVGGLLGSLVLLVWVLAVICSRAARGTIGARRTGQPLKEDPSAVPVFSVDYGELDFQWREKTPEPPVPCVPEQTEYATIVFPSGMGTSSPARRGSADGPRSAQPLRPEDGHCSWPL

For CN(CC(=O)Nc1nc2ccc(OC(F)(F)F)cc2s1)C(=O)CNC(=O)CN [BHV-4157, 2-Amino-N-{[methyl({[6-(trifluoromethoxy)-1,3-benzothiazol-2-yl]carbamoyl}methyl)carbamoyl]methyl}acetamide], the “Percent survival of mice after tumor implantation” value (shortened to “Percent survival of mice”) (GL261 cells; Arm 3: 15 mg/kg i.p. daily from day 10, day 0) was 100%, the “Percent survival of mice” value (GL261 cells; Arm 3: 15 mg/kg i.p. daily from day 10, day 21) was 90% and the “Percent survival of mice” value (GL261 cells; Arm 3: 15 mg/kg i.p. daily from day 10, day 22) was 80%. For the same compound, the “Percent survival of mice” value (GL261 cells; Arm 3: 15 mg/kg i.p. daily from day 10, day 23) was 70%, the “Percent survival of mice” value (GL261 cells; Arm 3: 15 mg/kg i.p. daily from day 10, day 24) was 50% and the “Percent survival of mice” value (GL261 cells; Arm 3: 15 mg/kg i.p. daily from day 10, day 26) was 30%. For the same compound, the “Percent survival of mice” value (GL261 cells; Arm 3: 15 mg/kg i.p. daily from day 10, day 27) was 20%, the “Percent survival of mice” value (GL261 cells; Arm 3: 15 mg/kg i.p. daily from day 10, day 28) was 10% and the “Percent survival of mice” value (GL261 cells; Arm 3: 15 mg/kg i.p. daily from day 10, day 36) was 0%. For the same compound, the “Percent survival of mice” value (GL261 cells; Arm 4: 30 mg/kg i.p. daily from day 10, day 0) was 100%, the “Percent survival of mice” value (GL261 cells; Arm 4: 30 mg/kg i.p. daily from day 10, day 21) was 90% and the “Percent survival of mice” value (GL261 cells; Arm 4: 30 mg/kg i.p. daily from day 10, day 23) was 70%. For the same compound, the “Percent survival of mice” value (GL261 cells; Arm 4: 30 mg/kg i.p. daily from day 10, day 24) was 50%, the “Percent survival of mice” value (GL261 cells; Arm 4: 30 mg/kg i.p. daily from day 10, day 26) was 30% and the “Percent survival of mice” value (GL261 cells; Arm 4: 30 mg/kg i.p. daily from day 10, day 29) was 20%. The “Percent survival of mice” value (GL261 cells; Arm 4: 30 mg/kg i.p. daily from day 10, day 34) was 10%, the “Percent survival of mice” value (GL261 cells; Arm 4: 30 mg/kg i.p. daily from day 10, day 60) was 10% and the “Percent survival of mice” value (GL261 cells; Arm 5: 45 mg/kg i.p. daily from day 10, day 0) was 100%. The “Percent survival of mice” value (GL261 cells; Arm 5: 45 mg/kg i.p. daily from day 10, day 21) was 90%, the “Percent survival of mice” value (GL261 cells; Arm 5: 45 mg/kg i.p. daily from day 10, day 22) was 80% and the “Percent survival of mice” value (GL261 cells; Arm 5: 45 mg/kg i.p. daily from day 10, day 23) was 70%. For the same compound, the “Percent survival of mice” value (GL261 cells; Arm 5: 45 mg/kg i.p. daily from day 10, day 24) was 60%, the “Percent survival of mice” value (GL261 cells; Arm 5: 45 mg/kg i.p. daily from day 10, day 25) was 50% and the “Percent survival of mice” value (GL261 cells; Arm 5: 45 mg/kg i.p. daily from day 10, day 27) was 20%. The “Percent survival of mice” value (GL261 cells; Arm 5: 45 mg/kg i.p. daily from day 10, day 28) was 10% and the “Percent survival of mice” value (GL261 cells; Arm 5: 45 mg/kg i.p. daily from day 10, day 29) was 0%.
For “Ipilimumab: fully human IgG1 monoclonal antibody that blocks the binding of CTLA-4 to its B7 ligands”, the “Best overall response: ORR %” value (advanced melanoma) is given as 12%, the Complete response % (advanced melanoma) is given as 1% and the “OS: % of patients with event” value (advanced melanoma) is given as “(40%)”. For the same compound, the “OS: Median in months” value (advanced melanoma) was “Not reached”, the “OS: Number of patients with event” value (advanced melanoma) was 112 and the “PFS: % of patients with event” value (advanced melanoma) was “(68%)”. For the same compound, the “PFS: Median in months” value (advanced melanoma) was 2.8 months, the “PFS: Number of patients with event” value (advanced melanoma) was 188 and the Partial response % (advanced melanoma) was 10%. The “Response duration: % ongoing” value (advanced melanoma) was 88%, the “Response duration: Median in months” value (advanced melanoma; patients with confirmed complete or partial response) was “Not reached” and the “median OS” value ([1]; patients with CR or PR) was “not reached”. For the same compound, the “median OS” value ([1]; patients with PD) was 8 months, the “median OS” value ([1]; patients with SD) was 22 months and the “OS at 1 year % (95% CI)” value ([1]; 3 mg/kg monotherapy, n = 137) was 46% (37.0, 54.1). The “OS at 2 years % (95% CI)” value ([1]; 3 mg/kg monotherapy, n = 137) was 24% (16.0, 31.5), the “Overall survival: Median Months” value ([1]; 3 mg/kg monotherapy, n = 137) was 10 months and the “hazard ratio (HR) for comparison of OS” value ([1]; ipilimumab monotherapy vs gp100) was 0.66. The BORR [1, 3] was 38% and the “disease control rate (DCR) (CR+PR+SD)” value [1, 3] was 75%.
For nivolumab, the “Complete response (CR) (number)” value ([2]; 3 mg/kg every 2 weeks, n = 210) is given as 16, the “Objective response (number)” value ([2]; 3 mg/kg every 2 weeks, n = 210) is given as 84 and the “Overall survival: Events” value ([2]; 3 mg/kg every 2 weeks, n = 210) is given as 50. For the same compound, the “Overall survival: Events, figure in parentheses” value ([2]; 3 mg/kg every 2 weeks, n = 210) was “(23.8)”, the “Partial response (PR) (number)” value ([2]; 3 mg/kg every 2 weeks, n = 210) was 68 and the “Progression-free survival: Events” value ([2]; 3 mg/kg every 2 weeks, n = 210) was 108. For the same compound, the “Progression-free survival: Events, figure in parentheses” value ([2]; 3 mg/kg every 2 weeks, n = 210) was “(51.4)”, the “Stable disease (SD) (number)” value ([2]; 3 mg/kg every 2 weeks, n = 210) was 35 and the “Complete response (CR) (%)” value ([2]; 3 mg/kg every 2 weeks) was “(7.6%)”. The “Median duration of response” value ([2]; 3 mg/kg every 2 weeks) was “Not reached”, the “Median time to response” value ([2]; 3 mg/kg every 2 weeks) was 2.1 Months and the “Objective response (%)” value ([2]; 3 mg/kg every 2 weeks) was “(40.0%)”. The “Overall survival: Median” value ([2]; 3 mg/kg every 2 weeks) was “Not reached”, the “Overall survival: Rate At 6 months” value ([2]; 3 mg/kg every 2 weeks) was 84.1 and the “Overall survival: Rate At 12 months” value ([2]; 3 mg/kg every 2 weeks) was 72.9. The “Partial response (PR) (%)” value ([2]; 3 mg/kg every 2 weeks) was “(32.4%)”, the “Progression-free survival: Median” value ([2]; 3 mg/kg every 2 weeks) was 5.1 and the “Progression-free survival: Rate At 6 months” value ([2]; 3 mg/kg every 2 weeks) was 48.0. For the same compound, the “Progression-free survival: Rate At 12 months” value ([2]; 3 mg/kg every 2 weeks) was 41.8, the “Stable disease (SD) (%)” value ([2]; 3 mg/kg every 2 weeks) was “(16.7%)” and the “Objective response: Odds ratio” value [2, 4] was 4.06. The “Overall survival: Hazard ratio” value [2, 4] was 0.42, the “Progression-free survival: Hazard ratio” value [2, 4] was 0.43 and the “mean occupancy rate (PD-1)” value (PD-1) was 85%. The “mean plateau occupancy (PD-1)” value (PD-1) was 72%.
